Molecular target: P. falciparum apicoplast DNA polymerase (Pf-apPOL) (Plasmodium falciparum, UniProt Q8ILY1)
Test: Fluorescence-based high-throughput DNA polymerase assay (molecular beacon), primary screen and dose-response
Assay type: biochemical
Conditions: for DNA Pol: 90 min, 10 µM; for % inhibition apPOL 180' 2.5 / % inhibition apPOL 180' 5 / % inhibition apPOL 180' 10 / % inhibition apPOL 180' 20 / % inhibition apPOL 180' 40 / % inhibition apPOL 180' 80: read at 180'
In short: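 Single-point screening used 10 µM compound with 20 nM polymerase, 20 nM hairpin substrate and 6 µM dNTPs for 90 min at 25 °C. Confirmatory titrations (2.5–80 µM) followed fluorescence at three times, and IC50 was derived from a fit including a cooperativity term n.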

Sequence of P. falciparum apicoplast DNA polymerase (Pf-apPOL) (Q8ILY1 entry or part of it): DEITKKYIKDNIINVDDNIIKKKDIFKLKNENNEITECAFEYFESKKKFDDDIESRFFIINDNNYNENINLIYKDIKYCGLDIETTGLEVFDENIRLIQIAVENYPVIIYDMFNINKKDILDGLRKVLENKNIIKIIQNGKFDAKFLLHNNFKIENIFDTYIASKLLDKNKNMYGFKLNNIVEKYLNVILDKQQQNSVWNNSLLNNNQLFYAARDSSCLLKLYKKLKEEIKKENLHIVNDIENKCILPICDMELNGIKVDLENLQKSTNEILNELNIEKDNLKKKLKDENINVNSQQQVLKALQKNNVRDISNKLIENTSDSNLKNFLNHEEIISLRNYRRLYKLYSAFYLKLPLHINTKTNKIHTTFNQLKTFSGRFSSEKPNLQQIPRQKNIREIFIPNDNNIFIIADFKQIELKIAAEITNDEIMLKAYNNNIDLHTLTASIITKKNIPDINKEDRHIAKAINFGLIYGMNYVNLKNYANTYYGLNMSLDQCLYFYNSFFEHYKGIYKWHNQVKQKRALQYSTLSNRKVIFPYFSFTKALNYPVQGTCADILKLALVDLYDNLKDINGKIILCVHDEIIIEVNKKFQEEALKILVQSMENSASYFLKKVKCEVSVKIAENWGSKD

## O=C1CSC2=NC3=C(CCc4ccccc43)C(c3cccs3)N12 (stereo not shown) [Molecule 59, O=C1CSC2=NC3=C(C(N12)c1cccs1)CCc1c3cccc1]
186 hits, DNA Pol (screen value), unit not given
  DNA Pol: 63
'DNA Pol' (screen value), unit not given
  DNA Pol: 63
DRC-1, read at 10', concentration 2.5
  % inhibition Apo pol 10' 2.5: 4.043%
DRC-1, read at 10', concentration 5
  % inhibition Apo pol 10' 5: 24.0896%
DRC-1, read at 10', concentration 10
  % inhibition Apo pol 10' 10: 41.1279%
DRC-1, read at 10', concentration 20
  % inhibition Apo pol 10' 20: 53.1812%
DRC-1, read at 10', concentration 40
  % inhibition Apo pol 10' 40: 67.0288%
DRC-1, read at 10', concentration 80
  % inhibition Apo pol 10' 80: 63.2791%
DRC-1, read at 90', concentration 2.5
  % inhibition Apol 90' 2.5: -1.656%
DRC-1, read at 90', concentration 5
  % inhibition Apol 90' 5: 10.7696%
DRC-1, read at 90', concentration 10
  % inhibition Apol 90' 10: 22.0098%
DRC-1, read at 90', concentration 20
  % inhibition Apol 90' 20: 35.5266%
DRC-1, read at 90', concentration 40
  % inhibition Apol 90' 40: 60.0258%
DRC-1, read at 90', concentration 80
  % inhibition Apol 90' 80: 67.4831%
DRC-1, concentration 2.5
  % inhibition apPOL 180' 2.5: -6.428%
DRC-1, concentration 5
  % inhibition apPOL 180' 5: -0.2424%
DRC-1, concentration 10
  % inhibition apPOL 180' 10: 9.04%
DRC-1, concentration 20
  % inhibition apPOL 180' 20: 18.673%
DRC-1, concentration 40
  % inhibition apPOL 180' 40: 46.5795%
DRC-1, concentration 80
  % inhibition apPOL 180' 80: 61.292%
DRC-2, concentration 10
  % inhibition Apo pol 5': 28%
  % inhibition Apol 40': 28%
  % inhibition apPOL 180' 10: 11%
DRC-2, concentration 40
  % inhibition Apol 40': 45%
  % inhibition ApPOL 90': 45%
  % inhibition apPOL 180' 40: 38%
DRC-2, read at 5', concentration 2.5
  % inhibition Apo pol 5' 2.5: 3.73%
DRC-2, read at 5', concentration 5
  % inhibition Apo pol 5' 5: 15%
DRC-2, read at 5', concentration 10
  % inhibition Apo pol 5' 10: 28%
DRC-2, read at 5', concentration 20
  % inhibition Apo pol 5' 20: 33%
DRC-2, read at 5', concentration 40
  % inhibition Apo pol 5' 40: 31%
DRC-2, read at 5', concentration 80
  % inhibition Apo pol 5' 80: 23%
DRC-2, read at 40', concentration 2.5
  % inhibition Apol 40' 2.5: 3%
DRC-2, read at 40', concentration 5
  % inhibition Apol 40' 5: 14%
DRC-2, read at 40', concentration 10
  % inhibition Apol 40' 10: 28%
DRC-2, read at 40', concentration 20
  % inhibition Apol 40' 20: 39%
DRC-2, read at 40', concentration 40
  % inhibition Apol 40' 40: 45%
DRC-2, read at 40', concentration 80
  % inhibition Apol 40' 80: 48%
DRC-2, read at 90', concentration 2.5
  % inhibition ApPOL 90' 2.5: -1.13%
DRC-2, read at 90', concentration 5
  % inhibition ApPOL 90' 5: 10%
DRC-2, read at 90', concentration 10
  % inhibition ApPOL 90' 10: 22%
DRC-2, read at 90', concentration 20
  % inhibition ApPOL 90' 20: 35%
DRC-2, read at 90', concentration 40
  % inhibition ApPOL 90' 40: 45%
DRC-2, read at 90', concentration 80
  % inhibition ApPOL 90' 80: 52%
DRC-2, concentration 2.5
  % inhibition apPOL 180' 2.5: -8%
DRC-2, concentration 5
  % inhibition apPOL 180' 5: 2.64%
DRC-2, concentration 20
  % inhibition apPOL 180' 20: 24%
DRC-2, concentration 80
  % inhibition apPOL 180' 80: 55%

## O=C(c1c[nH]c2ncccc12)N1CCCC1 [Molecule 63, O=C(c1c[nH]c2c1cccn2)N1CCCC1]
"DNA Pol" of the 186 hits list (screen value)
  DNA Pol: 28
DRC-1, concentration 2.5
  % inhibition Apo pol 10': 5.209%
  % inhibition Apol 90': 5.771%
  % inhibition apPOL 180': 3.366%
DRC-1, concentration 5
  % inhibition Apo pol 10': 6.34%
  % inhibition Apol 90': 3.06%
  % inhibition apPOL 180': -1.279%
DRC-1, concentration 10
  % inhibition Apo pol 10': 30.6254%
  % inhibition Apol 90': 21.9015%
  % inhibition apPOL 180': 12.4312%
DRC-1, concentration 20
  % inhibition Apo pol 10': 50.0486%
  % inhibition Apol 90': 39.4898%
  % inhibition apPOL 180': 25.4337%
DRC-1, concentration 40
  % inhibition Apo pol 10': 59.3862%
  % inhibition Apol 90': 47.3849%
  % inhibition apPOL 180': 33.3219%
DRC-1, concentration 80
  % inhibition Apo pol 10': 75.2483%
  % inhibition Apol 90': 77.404%
  % inhibition apPOL 180': 74.0045%
DRC-2, concentration 2.5
  % inhibition Apo pol 5': 3%
  % inhibition Apol 40': 3.74%
  % inhibition ApPOL 90': 2.81%
  % inhibition apPOL 180': -1%
DRC-2, concentration 5
  % inhibition Apo pol 5': 10%
  % inhibition Apol 40': 11%
  % inhibition ApPOL 90': 10%
  % inhibition apPOL 180': 3.46%
DRC-2, concentration 10
  % inhibition Apo pol 5': 29%
  % inhibition Apol 40': 33%
  % inhibition ApPOL 90': 30%
  % inhibition apPOL 180': 21%
DRC-2, concentration 20
  % inhibition Apo pol 5': 40%
  % inhibition Apol 40': 50%
  % inhibition ApPOL 90': 49%
  % inhibition apPOL 180': 41%
DRC-2, concentration 40
  % inhibition Apo pol 5': 42%
  % inhibition Apol 40': 62%
  % inhibition ApPOL 90': 66%
  % inhibition apPOL 180': 65%
DRC-2, concentration 80
  % inhibition Apo pol 5': 32%
  % inhibition Apol 40': 58%
  % inhibition ApPOL 90': 65%
  % inhibition apPOL 180': 68%
Primary screen value, DNA Pol
  DNA Pol: 28

## COc1ccc(CNC(=O)Cn2nc3c(c2NC(=O)Cc2cccs2)CSC3)cc1 [Molecule 55, COc1ccc(cc1)CNC(=O)Cn1nc2c(c1NC(=O)Cc1cccs1)CSC2]
'DNA Pol' of the 186 hits list (primary screen value)
  DNA Pol: 42
DNA Pol (primary screen value)
  DNA Pol: 42
DRC-1, concentration 2.5
  % inhibition Apo pol 10': 7.186%
  % inhibition Apol 90': -3.211%
  % inhibition apPOL 180': -10.7492%
DRC-1, concentration 5
  % inhibition Apo pol 10': 13.7887%
  % inhibition Apol 90': 0.071%
  % inhibition apPOL 180': -8.12%
DRC-1, concentration 10
  % inhibition Apo pol 10': 43.1349%
  % inhibition Apol 90': 21.9926%
  % inhibition apPOL 180': 5.391%
DRC-1, concentration 20
  % inhibition Apo pol 10': 61.7989%
  % inhibition Apol 90': 39.7839%
  % inhibition apPOL 180': 18.5765%
DRC-1, concentration 40
  % inhibition Apo pol 10': 74.6193%
  % inhibition Apol 90': 59.3907%
  % inhibition apPOL 180': 40.1483%
DRC-1, concentration 80
  % inhibition Apo pol 10': 82.9138%
  % inhibition Apol 90': 77.3387%
  % inhibition apPOL 180': 66.9877%
DRC-2, concentration 2.5
  % inhibition Apo pol 5': -0.186%
  % inhibition Apol 40': -0.881%
  % inhibition ApPOL 90': -1.87%
  % inhibition apPOL 180': -6.63%
DRC-2, concentration 5
  % inhibition Apo pol 5': -3.35%
  % inhibition Apol 40': -4.6%
  % inhibition ApPOL 90': -7%
  % inhibition apPOL 180': -14%
DRC-2, concentration 10
  % inhibition Apo pol 5': 16%
  % inhibition Apol 40': 17%
  % inhibition ApPOL 90': 13%
  % inhibition apPOL 180': 1.41%
DRC-2, concentration 20
  % inhibition Apo pol 5': 23%
  % inhibition Apol 40': 23%
  % inhibition ApPOL 90': 19%
  % inhibition apPOL 180': 5%
DRC-2, concentration 40
  % inhibition Apo pol 5': 32%
  % inhibition Apol 40': 47%
  % inhibition ApPOL 90': 45%
  % inhibition apPOL 180': 35%
DRC-2, concentration 80
  % inhibition Apo pol 5': 26%
  % inhibition Apol 40': 53%
  % inhibition ApPOL 90': 63%
  % inhibition apPOL 180': 65%

Source: article PMC9090415, “Discovery of small molecule inhibitors of Plasmodium falciparum apicoplast DNA polymerase” (Journal of Enzyme Inhibition and Medicinal Chemistry, 2022)
